Data taken from the supplement of paper PMC10307832.

How the values were obtained:
Experiment in all cases: relative viability (nuclei count vs DMSO), 5 days (fraction); higher = more cells survive
[1] = compound: COc1cc2c(Oc3ccc4[nH]c(C)cc4c3F)ncnc2cc1OCCCN1CCCC1 [Cediranib]
How it was run: (§1)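 Only plates meeting two conditions passed: control CV below 25% and at least one doubling. Lung cancer cell lines, kept overnight at 37 °C in 1536-well plates, were pinned with five library-drug doses (not always all listed) √10 apart on vehicle-anchored plates and grown 5 days without medium change. A one-step fix, permeabilisation and Hoechst stain preceded 4× imaging and MetaXpress nuclear counting. Viability equals treated-well nuclei divided by vehicle-well nuclei, as the median over plates.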

[2] = compound: Nc1ncn([C@H]2C[C@H](O)[C@@H](CO)O2)c(=O)n1 [Decitabine]
How it was run: as §1

[3] = compound: O=C(C[C@H]1NCCC[C@@H]1O)Cn1cnc2cc(Br)c(Cl)cc2c1=O (racemic) [Halofuginone]
How it was run: as §1

Cell Line	relative viability ([1]; 0.04 µM)	relative viability ([1]; 0.1265 µM)	relative viability ([1]; 0.4 µM)	relative viability ([1]; 1.265 µM)	relative viability ([1]; 4 µM)	relative viability ([2]; 0.04 µM)	relative viability ([2]; 0.1265 µM)	relative viability ([2]; 0.4 µM)	relative viability ([2]; 1.265 µM)	relative viability ([2]; 2 µM, anchor plate)	relative viability ([2]; 4 µM)	relative viability ([3]; 0.001 µM)	relative viability ([3]; 0.003162 µM)	relative viability ([3]; 0.01 µM)	relative viability ([3]; 0.03162 µM)	relative viability ([3]; 0.1 µM)
COR-L23	1.06	0.957	0.914	1	1.27	0.677	0.629	0.484	0.379	0.441	0.308	1.14	1.02	0.982	0.931	0.268
SW 900	0.811	0.774	0.737	0.835	0.952	0.465	0.477	0.298	0.25	0.433	0.265	0.911	0.888	0.664	1.02	0.569
NCI-H2085	1	1.08	0.946	0.99	0.97	0.812	0.768	0.65	0.528	0.559	0.528	1.03	1.07	0.989	1.04	0.935
NCI-H2087	1.09	1.18	0.776	1.14	1.27	0.574	0.567	0.561	0.296	0.294	0.367	1.09	1.21	0.975	0.886	0.836
HCC-366	1.1	1.02	0.993	1.02	1	1.03	0.977	0.546	0.241	0.344	0.155	1.02	1.05	1	0.963	1.01
NCI-H2126	0.971	0.987	0.955	0.809	0.957	0.906	0.958	0.709	0.633	0.573	0.582	1.02	0.992	0.949	0.968	0.88
SK-LU-1	1.12	1.02	0.957	0.924	1.11	0.788	0.703	0.46	0.482	0.631	0.411	1.09	1.05	1.04	1.05	0.588
HCC-78	0.963	1.05	0.965	1.03	1	0.877	0.816	0.673	0.541	0.706	0.47	1.07	0.961	0.958	1.06	0.879
LCLC-97TM1	1.04		0.941	0.949	0.984	0.425	0.538	0.209	0.134	0.238	0.15	0.913	0.938	1.01	0.995	0.679
NCI-H1563	0.97	1.39	1.03	0.961	1.13	1.07	1.04	1.43	0.986		1.03	1.02	1.06	0.885	0.664	0.486
NCI-H838	1.02	0.965	0.916	0.827	1.06	0.687	0.59	0.434	0.461	0.466	0.314	1	1	0.945	0.765	0.409
NCI-H520	1.12	0.747	0.917	0.804	0.865	0.847	0.811	0.508	0.472	0.517	0.374	1.01	1.07	1.04	0.91	0.635
NCI-H2347	1.02	0.84	0.983	1.02	1.11	0.885	0.887	0.697	0.6	0.587	0.66	1.08	1.01	1.02	1.02	0.886
NCI-H441	1.04	0.985	0.884	1.03	1.09	0.406	0.381	0.274	0.229	0.25	0.238	1.14	1.12	1.06	0.943	0.596
NCI-H2342	1	1.1	0.899	0.746	1.07	0.977	1.05	0.97	0.671	0.745	0.645	1.07	0.956	0.961	0.963	0.95
NCI-H1944	0.93	0.955	0.918	0.883	0.936	0.9	0.869	0.541	0.381	0.429	0.441	0.962	0.951	0.918	0.963	0.922
NCI-H2405	0.999	0.914	0.994	1	1.02	0.898	0.903	0.758	0.596	0.745	0.49	1.16	1.03	1.01	0.96	0.876
HCC-15	1.03		0.948	1.08	1	0.915	0.917	0.419	0.483	0.661	0.508	0.991	1.14	0.981	0.979	0.842
